From US20100087388A1, “ODCASE INHIBITORS AS ANTI-VIRALS AND ANTIBIOTICS” (priority 2005, published 2010)
pKi: −log10 of the molar value.

Experiments:
[1] = system: human primary blood cells
[2] = molecular target: T1, Staphylococcus aureus ODCase (Staphylococcus aureus, UniProt Q6GHN1); assay: ODCase enzyme inhibition assay; type: biochemical; conditions: read-out: K1 against Staphylococcus aureus ODCase
T1 construct: made in house; host or cells: E. coli BL21(DE3), pET24a(+)
Excerpt: ODCase gene, pyrF, was obtained from the complete genomes of the respective bacteria through ATCC. The pyrF gene was amplified from the genome of S. aureus M252 using two synthetic primers: Dir 5′-[…] [SEQ ID NO: 1] and Rev 5′-[…] [SEQ ID NO: 2].
The pET expression system was used to express ODCase from pyrF. The cloning strategy can use any generic strategies, herein a double digestion of pET24a(+) expression vector and pyrF separately using EcoRI and HindIII restriction enzyme was used to produce digestion products with sticky ends. […] The digested vector was separated from the restriction enzyme by gel purification by QIAquick Gel Extraction Kit Protocol using microcentrifuge and quantified on 1% agarose gel with 2-log ladder as standard. In addition to quantifying DNA, 1% agarose gel was run with undigested vector to confirm that the vector was digested.
pyrF from the PCR mixture was also double digested in 50 uL solution using the same conditions described above. The separation of the pyrF from restriction enzymes was carried out by QIAquick Gel Extraction Kit Protocol using Microcentrifuge, and the collected gene was quantified on 1% agarose gel. […]

T1 sequence (Q6GHN1 whole entry): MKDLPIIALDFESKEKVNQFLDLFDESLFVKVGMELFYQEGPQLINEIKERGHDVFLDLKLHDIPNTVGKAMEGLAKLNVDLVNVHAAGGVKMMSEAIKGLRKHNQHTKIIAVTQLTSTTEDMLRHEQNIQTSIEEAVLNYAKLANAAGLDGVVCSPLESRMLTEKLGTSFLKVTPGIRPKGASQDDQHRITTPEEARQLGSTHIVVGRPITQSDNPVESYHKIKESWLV

SMILES	Effect on human primary blood cells (indications of toxicity) [1]	pKi [2]
O=c1cc(I)n([C@@H]2O[C@H](CO)[C@@H](O)[C@H]2O)c(=O)[nH]1 [Ia, 6-Iodo-uridine]	did not inhibit primary cells significantly	–
O=c1cc(I)n([C@@H]2O[C@H](COP(=O)(O)O)[C@@H](O)[C@H]2O)c(=O)[nH]1 [Ib, 6-Iodo uridine-5′-O-monophosphate]	–	> 7.30
